In brackets after ≈: the same amount, converted by molar mass. Bounds are passed on as bounds.

Holding throughout (type): cell-based
The subject of assay [1] is spores of ATCC 43255 strain. Briefly: Inhibition of germination of C. difficile spores (MIC), strain ATCC 43255. The following applies: Clostridioides difficile, ATCC43255, 1 h; strain 43255; sodium taurocholate as germinant, BHIS medium, 37° C., OD580 for 60 min; read-out: MIC (minimum concentration that completely inhibits spore germination). In outline:
(§1)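 Spores heat-activated for 30 min at 65° C and washed, then preincubated with compound (10 mM DMSO stock) in BHIS at 37° C. Germination was triggered with sodium taurocholate, and OD580 was read each minute for 60 min. Inhibition = 100% − germination rate, from final vs initial OD relative to germinant-only controls.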

The subject of assay [2] is spores of ATCC 630 strain. Briefly: Inhibition of germination of C. difficile spores (MIC), strain ATCC 630. The note with it: Clostridioides difficile, ATCC630, 1 h; strain 630; sodium taurocholate as germinant, BHIS medium, 37° C., OD580 for 60 min; read-out: MIC (minimum concentration that completely inhibits spore germination). In outline: as §1
The subject of assay [3] is spores of ATCC BBA1870 strain. Kind of assay: Inhibition of germination of C. difficile spores (MIC), strain ATCC BBA1870. The following applies: Clostridioides difficile, ATCCBBA1870STRAIN, 1 h; strain 1870; sodium taurocholate as germinant, BHIS medium, 37° C., OD580 for 60 min; read-out: MIC (minimum concentration that completely inhibits spore germination). In short, it runs like this: as §1

On to `CC(C)[C@H](NC(=O)C[C@@H](C)[C@H]1CC[C@H]2[C@@H]3[C@H](OS(=O)(=O)O)C[C@@H]4CC(=O)CC[C@]4(C)[C@H]3CC[C@]12C)c1ccc(Cl)s1` [Compound I-111], for which the MIC in assay [1], in assay [2] and in assay [3] was greater than 256 µM each time.
For `CC(C)[C@@H](NC(=O)C[C@@H](C)[C@H]1CC[C@H]2[C@@H]3[C@H](OS(=O)(=O)O)C[C@@H]4CC(=O)CC[C@]4(C)[C@H]3CC[C@]12C)c1ccc(Cl)s1` [Compound I-112], the MIC in assay [1] came out at 0.25 µM (≈ 0.157 µg/mL); in assay [2], 0.5 µM (≈ 0.314 µg/mL); in assay [3] it was 0.5 µM (≈ 0.314 µg/mL).
On to `CC(C)C(NC(=O)C[C@@H](C)[C@H]1CC[C@H]2[C@@H]3[C@H](OS(=O)(=O)O)C[C@@H]4CC(=O)CC[C@]4(C)[C@H]3CC[C@]12C)c1ccc(Br)s1` (stereo partly drawn) [Compound I-113], for which the MIC in assay [1] came to 0.5 µM (≈ 0.336 µg/mL); in assay [2] it was 1 µM (≈ 0.673 µg/mL); in assay [3], 1 µM (≈ 0.673 µg/mL).
On to `CC(C)[C@H](NC(=O)C[C@@H](C)[C@H]1CC[C@H]2[C@@H]3[C@H](OS(=O)(=O)O)C[C@@H]4CC(=O)CC[C@]4(C)[C@H]3CC[C@]12C)c1ccc(Br)s1` [Compound I-114], for which the MIC in assay [1], in assay [2] and in assay [3] was greater than 256 µM throughout.
In the case of `CC(C)[C@@H](NC(=O)C[C@@H](C)[C@H]1CC[C@H]2[C@@H]3[C@H](OS(=O)(=O)O)C[C@@H]4CC(=O)CC[C@]4(C)[C@H]3CC[C@]12C)c1ccc(Br)s1` [Compound I-115], the MIC in assay [1] is 0.25 µM (≈ 0.168 µg/mL); in assay [2] it was 0.5 µM (≈ 0.336 µg/mL); in assay [3], 0.5 µM (≈ 0.336 µg/mL).
Take `CCC(NC(=O)C[C@@H](C)[C@H]1CC[C@H]2[C@@H]3[C@H](O)[C@H](O)[C@@H]4C[C@H](O)CC[C@]4(C)[C@H]3CC[C@]12C)c1cccs1` (stereo partly drawn) [Compound I-116]: the MIC in assay [1], in assay [2] and in assay [3] was 16 µM (≈ 8.28 µg/mL) each time.
Turning to `CC[C@@H](NC(=O)C[C@@H](C)[C@H]1CC[C@H]2[C@@H]3[C@H](O)[C@H](O)[C@@H]4C[C@H](O)CC[C@]4(C)[C@H]3CC[C@]12C)c1ccc(Cl)s1` [Compound I-117], the MIC turned out to be 8 µM (≈ 4.42 µg/mL) in assay [1], 4 µM (≈ 2.21 µg/mL) in assay [2] and 8 µM (≈ 4.42 µg/mL) in assay [3].
As to `CCC(NC(=O)C[C@@H](C)[C@H]1CC[C@H]2[C@@H]3[C@H](O)[C@H](O)[C@@H]4C[C@H](O)CC[C@]4(C)[C@H]3CC[C@]12C)c1ccc(Br)s1` (stereo partly drawn) [Compound I-118], the MIC in assay [1] is 8 µM (≈ 4.77 µg/mL); in assay [2], 8 µM (≈ 4.77 µg/mL); in assay [3], 16 µM (≈ 9.55 µg/mL).
Turning to `CC(C)C(NC(=O)C[C@@H](C)[C@H]1CC[C@H]2[C@@H]3[C@H](O)[C@H](O)[C@@H]4C[C@H](O)CC[C@]4(C)[C@H]3CC[C@]12C)c1cccs1` (stereo partly drawn) [Compound I-119], the MIC in assay [1], in assay [2] and in assay [3] was 32 µM (≈ 17 µg/mL) each time.
On to `CC(C)[C@@H](NC(=O)C[C@@H](C)[C@H]1CC[C@H]2[C@@H]3[C@H](O)[C@H](O)[C@@H]4C[C@H](O)CC[C@]4(C)[C@H]3CC[C@]12C)c1ccc(Cl)s1` [Compound I-120], for which the MIC in assay [1], in assay [2] and in assay [3] was 16 µM (≈ 9.06 µg/mL) each time.
In the case of `CC(C)[C@H](NC(=O)C[C@@H](C)[C@H]1CC[C@H]2[C@@H]3[C@H](O)[C@H](O)[C@@H]4C[C@H](O)CC[C@]4(C)[C@H]3CC[C@]12C)c1ccc(Br)s1` [Compound I-121], the MIC in assay [1], in assay [2] and in assay [3] was greater than 256 µM throughout.
Turning to `CC[C@@H](NC(=O)C[C@@H](C)[C@H]1CC[C@H]2[C@@H]3[C@H](O)[C@H](O)[C@@H]4CC(=O)CC[C@]4(C)[C@H]3CC[C@]12C)c1cccs1` [Compound I-122], the MIC in assay [1], in assay [2] and in assay [3] was 128 µM (≈ 66 µg/mL) each time.

Source of the values: patent US20230135729A1, “COMPOUND WITH ANTI-SPORE ACTIVITY AND PHARMACEUTICAL COMPOSITION THEREOF” (priority 2020, published 2023).
